# According to patent US20250040558A1, “ANTIMICROBIAL ACTIVITY OF CHLORITE-ENTRAINED POLYMERS” (CSP Technologies, Inc., priority 2021, published 2025):
# Key:
# [1] = tested on: Microsporidia; assay: Microsporidia spore viability on tomato slices (RK-13 culture, Calcofluor White); format: cell-based; details: 4° C.
# Protocol: Rabbit kidney (Rk-13) cell lines were maintained in flasks using 3.5% Fetal Bovine Serum (HIFBS) EMEM medium 1× antibiotics and antimycotics. Flasks were incubated at 37° C. and 5% CO2 until preparation of slides. 16-microwell slides were seeded with cells and grown in 10% (HIFBS) EMEM medium for 48 hours before inoculation with spores.
# Fresh Microsporidia spores were propagated and harvested using RK-13 tissue cultures. The harvested medium containing cell debris and spores was filtered through a 5 μm filter, centrifuged at 2000 g for 15 minutes and counted using a hemocytometer.
# Tomatoes were first prepared by rinsing with 70% ethanol and thoroughly rinsing with sterile e-pure water. Tomatoes were sliced using a sterile tomato slicer (Prince Castle, Inc) and placed in pre-labelled trays. Five tomatoes were sliced per Aptar tray (4×10.3×3.4 inches). The tomatoes were spiked by inoculating two slices of each tomato with 10 microliters of oocysts. Tomatoes were incubated at room temperature for 1 hr. […] For each treatment of 1 hr, 24 hr, 48 hr, and 5 days, and 7 days a control and a treated tray were evaluated. […]
# Tomato slices spiked with Microsporidia were suspended in F12 media. […] Spore counts were taken using an epifluorescence microscope at 40× magnification and recorded.
# [2] = tested on: S. Newport; assay: Reduction of S. Newport on sliced tomatoes; format: cell-based; details: 4° C.
# Protocol: The skins of sliced tomatoes were spot inoculated with S. Newport. Sliced tomatoes were sealed in a controlled environment containing ClO2 or a regular plastic seal. The inoculated tomato skins were removed and processed on days 0, 1, 2, 5 and 7, after which S. Newport was evaluated by plating onto XLT-4 agar.
# S. Newport was grown in TSB at 37° C. for 18-24 hr. Bacteria was resuspended in E-pure water. Serial dilutions of the inoculum were plated onto XLT-4 plates and incubated at 37° C. for 18-24 hours.
# Tomatoes were first prepared by rinsing with 70% ethanol and thoroughly rinsing with sterile e-pure water. Tomatoes were sliced using a sterile tomato slicer (Prince Castle, Inc) and placed in pre-labelled trays. Five tomatoes were sliced per Aptar tray (4×10.3×3.4 inches). The tomatoes were spiked by inoculating two slices of each tomato with 10 μL of S. Newport. Tomatoes were incubated at room temperature for 1 hr. After drying, each tray was heat sealed with a tray sealing instrument (Maxwell Chase Technologies) at a temperature of 390° F. For the experimental group, the film was treated with 0.63 g of chlorine dioxide. Trays were stored at 4° C. until specimen collection. For each treatment of 1 hr, 24 hr, 48 hr, and 5 days, and 7 days a control and a treated tray were evaluated. Tomato skins of spiked slices were collected and tested for the presence of S. Newport. […]
structure (smiles),measurement,setting,value
[O][Cl+][O-] [chlorine dioxide],Microsporidia spore viability,[1]; 24 hours of treatment,completely inactivated
same,Microsporidia spore viability,[1]; after one hour of treatment,effectively reduced spore viability
same,inactivation of S. Newport,[2]; film with 0.63 g chlorine dioxide,effective in inactivation
same,inactivation of S. Newport,[2]; two days of treatment,complete inactivation
